In the Kinase Knowledgebase extract (Sharma et al. 2016):

Legend:
MAPK14 (murine) = assay: Inhibition of MAPK14 Kinase Activity
MAPK14 (human) = MAPK14 (human) (UniProt Q16539); assay: Inhibition of LPS Induced TNF-alpha Release in Human PBMC
MAPK14 (human), sequence (Q16539 whole entry, looked up): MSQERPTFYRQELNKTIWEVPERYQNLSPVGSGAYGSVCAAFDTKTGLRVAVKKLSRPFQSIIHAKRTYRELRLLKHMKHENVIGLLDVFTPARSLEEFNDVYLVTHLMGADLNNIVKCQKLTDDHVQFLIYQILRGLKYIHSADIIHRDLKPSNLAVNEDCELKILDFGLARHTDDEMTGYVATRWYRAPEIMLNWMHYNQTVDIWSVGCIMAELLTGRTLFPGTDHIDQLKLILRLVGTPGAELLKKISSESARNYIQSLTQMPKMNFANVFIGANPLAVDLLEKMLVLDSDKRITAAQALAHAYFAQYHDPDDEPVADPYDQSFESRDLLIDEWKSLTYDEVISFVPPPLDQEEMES

Compound	IC50 (MAPK14 (murine))	IC50 (MAPK14 (human))
CN1CCC(O)(c2nc(-c3ccc(F)cc3)c(-c3ccncc3)o2)CC1	350 nM	
CN1CCC(O)(c2nc(-c3ccc(F)cc3)c(-c3ccncc3)[nH]2)CC1	90 nM	
Fc1ccc(-c2nc(C3CCNCC3)oc2-c2ccnc(NC3CCCCC3)c2)cc1	15 nM	0.2 nM
Fc1ccc(-c2nc(C3CCNCC3)oc2-c2ccnc(NC3CCCCC3)n2)cc1	11 nM	9 nM

Now from value to molecule:

IC50 (MAPK14 (murine))	IC50 (MAPK14 (human))	Compound
4 nM		C[C@H](Nc1cc(-c2sc(C3CCNCC3)nc2-c2ccc(F)cc2)ccn1)c1ccccc1
6 nM	1 nM	C[C@@H](Nc1nccc(-n2c(-c3ccc(F)cc3)nc3nc(N4CCN(C)CC4)ccc32)n1)c1ccccc1
450 nM		CN1CCC(O)(c2nc(-c3ccc(F)cc3)c(-c3ccncc3)s2)CC1
